Results: ChEMBL document CHEMBL5724914, “Linking interpersonal differences in gut microbiota composition and drug biotransformation activity” (2024)

What was measured:
[1] = (§1) The drug is tested on Z-020 corresponding to rabbit gut metagenome with ENA study accession number: PRJEB37062 and ENA sample accession number: ERS12561819 for biotransformation under anaerobic condition. The drug concentrations were measured over 9 timepoints collected between 0 and 24 hours of incubation by liquid-chromatography-coupled mass spectrometry (LC–MS); settings: 2 µM
[2] = as §1, with “Z-010” for “Z-020”, “to” for “to rabbit gut”, “ERS12561810” for “ERS12561819”; settings: 2 µM
[3] = as §1, with “Z-008” for “Z-020”, “to” for “to rabbit gut”, “ERS12561808” for “ERS12561819”; settings: 2 µM
[4] = as §1, with “Z-004” for “Z-020”, “to” for “to rabbit gut”, “ERS12561804” for “ERS12561819”; settings: 2 µM
[5] = as §1, with “WLS-240” for “Z-020”, “human” for “rabbit”, “ERS12561773” for “ERS12561819”; settings: 2 µM
[6] = as §1, with “WLS-220” for “Z-020”, “human” for “rabbit”, “ERS12561769” for “ERS12561819”; settings: 2 µM
[7] = as §1, with “WLS-098” for “Z-020”, “human” for “rabbit”, “ERS12561754” for “ERS12561819”; settings: 2 µM
[8] = as §1, with “WLS-073” for “Z-020”, “human” for “rabbit”, “ERS12561749” for “ERS12561819”; settings: 2 µM
[9] = as §1, with “WLS-038” for “Z-020”, “human” for “rabbit”, “ERS12561745” for “ERS12561819”; settings: 2 µM
[10] = as §1, with “WLS-007” for “Z-020”, “human” for “rabbit”, “ERS12561742” for “ERS12561819”; settings: 2 µM
[11] = human gut metagenome, 24 h, 2 µM
[12] = human gut metagenome, 24 h, 2 µM; remark: listed apart in the source
[13] = human gut metagenome, 24 h, 2 µM; remark: listed apart in the source
[14] = human gut metagenome, 24 h, 2 µM; remark: listed apart in the source
[15] = human gut metagenome, 24 h, 2 µM; remark: listed apart in the source
[16] = human gut metagenome, 24 h, 2 µM; remark: listed apart in the source
[17] = human gut metagenome, 24 h, 2 µM; remark: listed apart in the source
[18] = human gut metagenome, 24 h, 2 µM; remark: listed apart in the source
[19] = human gut metagenome, 24 h, 2 µM; remark: listed apart in the source
[20] = human gut metagenome, 24 h, 2 µM; remark: listed apart in the source
Note: call rule not given here.

Compound	Bacterial Biotransformation [1]	Bacterial Biotransformation [2]	Bacterial Biotransformation [3]	Bacterial Biotransformation [4]	Bacterial Biotransformation [5]	Bacterial Biotransformation [6]	Bacterial Biotransformation [7]	Bacterial Biotransformation [8]	Bacterial Biotransformation [9]	Bacterial Biotransformation [10]	Bacterial Biotransformation [11]	Bacterial Biotransformation [12]	Bacterial Biotransformation [13]	Bacterial Biotransformation [14]	Bacterial Biotransformation [15]	Bacterial Biotransformation [16]	Bacterial Biotransformation [17]	Bacterial Biotransformation [18]	Bacterial Biotransformation [19]	Bacterial Biotransformation [20]
CCN(CC)CCNC(C(=O)OCCC(C)C)c1ccccc1.Cl.Cl (stereo not given)	Compound metabolized	Compound metabolized	Compound NOT metabolized	Compound NOT metabolized	Compound metabolized	Compound NOT metabolized	Compound metabolized	Compound metabolized	Compound NOT metabolized	Compound metabolized	Compound metabolized	Compound metabolized	Compound metabolized	Compound metabolized	Compound metabolized	Compound metabolized	Compound metabolized	Compound metabolized	Compound metabolized	Compound metabolized
COc1ccccc1OCC(O)CN1CCN(CC(=O)Nc2c(C)cccc2C)CC1 (stereo not given) [RANOLAZINE]	Compound NOT metabolized	Compound NOT metabolized	Compound NOT metabolized	Compound NOT metabolized	Compound NOT metabolized	Compound NOT metabolized	Compound NOT metabolized	Compound NOT metabolized	Compound NOT metabolized	Compound NOT metabolized	Compound NOT metabolized	Compound NOT metabolized	Compound NOT metabolized	Compound NOT metabolized	Compound NOT metabolized	Compound NOT metabolized	Compound NOT metabolized	Compound NOT metabolized	Compound NOT metabolized	Compound NOT metabolized
CC(C)(C)NC[C@H](O)COc1ccccc1C1CCCC1.CC(C)(C)NC[C@H](O)COc1ccccc1C1CCCC1.O=S(=O)(O)O [PENBUTOLOL SULFATE]	Compound metabolized	Compound metabolized	Compound NOT metabolized	Compound metabolized	Compound metabolized	Compound metabolized	Compound metabolized	Compound metabolized	Compound metabolized	Compound metabolized	Compound metabolized	Compound metabolized	Compound metabolized	Compound metabolized	Compound metabolized	Compound metabolized	Compound metabolized	Compound metabolized	Compound metabolized	Compound metabolized
COc1ccc2[nH]c([S+]([O-])Cc3ncc(C)c(OC)c3C)nc2c1 (stereo not given) [OMEPRAZOLE]	Compound NOT metabolized	Compound metabolized	Compound metabolized	Compound metabolized	Compound metabolized	Compound metabolized	Compound metabolized	Compound metabolized	Compound metabolized	Compound metabolized	Compound metabolized	Compound metabolized	Compound metabolized	Compound metabolized	Compound metabolized	Compound metabolized	Compound metabolized	Compound metabolized	Compound metabolized	Compound metabolized
CN1CCN(C(=O)O[C@H]2c3nccnc3C(=O)N2c2ccc(Cl)cn2)CC1 [ESZOPICLONE]	Compound NOT metabolized	Compound NOT metabolized	Compound NOT metabolized	Compound NOT metabolized	Compound NOT metabolized	Compound NOT metabolized	Compound NOT metabolized	Compound NOT metabolized	Compound NOT metabolized	Compound NOT metabolized	Compound NOT metabolized	Compound NOT metabolized	Compound NOT metabolized	Compound NOT metabolized	Compound NOT metabolized	Compound NOT metabolized	Compound NOT metabolized	Compound NOT metabolized	Compound NOT metabolized	Compound NOT metabolized
OC(CCN1CCCCC1)(c1ccccc1)C1CCCCC1 (stereo not given) [TRIHEXYPHENIDYL]	Compound metabolized	Compound metabolized	Compound NOT metabolized	Compound metabolized	Compound metabolized	Compound NOT metabolized	Compound metabolized	Compound metabolized	Compound NOT metabolized	Compound metabolized	Compound NOT metabolized	Compound metabolized	Compound NOT metabolized	Compound metabolized	Compound NOT metabolized	Compound metabolized	Compound NOT metabolized	Compound metabolized	Compound metabolized	Compound NOT metabolized
COc1ccccc1N1CCN(CC(O)COc2cccc3ccccc23)CC1 (stereo not given) [NAFTOPIDIL]	Compound NOT metabolized	Compound NOT metabolized	Compound NOT metabolized	Compound NOT metabolized	Compound NOT metabolized	Compound NOT metabolized	Compound NOT metabolized	Compound NOT metabolized	Compound NOT metabolized	Compound NOT metabolized	Compound NOT metabolized	Compound NOT metabolized	Compound NOT metabolized	Compound NOT metabolized	Compound NOT metabolized	Compound NOT metabolized	Compound NOT metabolized	Compound NOT metabolized	Compound NOT metabolized	Compound NOT metabolized
